Measurements reported in patent US4835182A (priority 1987, dated 1989).
Where two headings read alike, the source gives them in different places.

Key:
in vivo [1] = test: in vivo
in vivo [2] = conditions: iv, 10 mg/kg
[3] = background; cited from earlier work
[4] = in vivo

In the case of `O=C(O)CCCc1ccc(N(CCCl)CCCl)cc1` [chlorambucil], the Kp (in vivo [1]) is reported as 0.02 and the Kp (in vivo [2]) is reported as 0.017.
In the case of `N[C@@H](Cc1ccc(N(CCCl)CCCl)cc1)C(=O)O` [melphalan], the “entry into the brain” value [3] is given as “only minimally enter the brain” and the Kp (in vivo [1]) is given as 0.1.
In the case of `CC(C)(C)OC(=O)CCCc1ccc(N(CCCl)CCCl)cc1` [tertiary butyl chlorambucil], the Kp (in vivo [1]) is reported as 0.7, the Kp (in vivo [2]) is reported as 0.7 and the “increase of brain/plasma concentration ratio of active drug versus chlorambucil” value [4] is reported as 4100%.
